Measured values as given in patent US7160916B2, “Method of increasing bone density or treating osteoporosis” (Yung Shin Pharmaceutical Ind. Co., Ltd., priority 2003, dated 2007).

What was measured:
Primary osteoblast cells = experiment: Assay of alkaline phosphatase activity in cultured osteoblasts; type: cell-based, rat
Procedure: Primary osteoblast cultures: Primary osteoblast cells were prepared from calvaria of 18-day-old fetal Sprague-Dawley (SD) rats according to the following method: Pregnant rats were put in anesthesia using intraperitoneal injection of trichloroacetaldehyde (200 mg/kg). The calvaria of the fetal rats were then dissected with aseptic technique. Soft tissues were removed under a dissecting microscope. The calvaria were divided into small pieces and then treated with 0.1% collagenase (Sigma Chemical, St. Louis, Mo.) solution for 10 minutes at 37° C. The cells released from the calvariae by two 20-minute sequential collagenase digestions were pooled and filtered through 70 μm nylon filters (Falcon, BD BioSciences, San Jose, Calif.). The cells were then grown on plastic cell culture dishes in 95:5 air-CO2 with Dulbecco's modified Eagle's medium (DMEM) (Gibco, Grand Island, N.Y.) which was supplemented with 20 mM HEPES and 10% heat-inactivated FCS, 2 mM-glutamine, penicillin (100 U/ml) and streptomycin (100 μg/ml) (pH adjusted to 7.6). The cell medium was changed twice a week. Osteoblasts were confirmed by morphology and expression of alkaline phosphatase (ALP). To examine the maturation of osteoblasts, cells were cultured for up to 14 days in a growth medium containing ascorbic acid (50 μg/ml) (Sigma Chemical, St. Louis, Mo.) and β-glycerophosphate (10 mM) (Sigma Chemical, St. Louis, Mo.) and the medium was changed every 3 day. Assay of alkalinephosphatase activity: Cells cultured in 6-well plates in the presence or absence of Indazole 1 were harvested in 1 ml of 0.2% Nonidet P-40 and cell suspension was disrupted by sonication. After centrifugation at 1500 g for 5 min, ALP activity in the supernatant was measured by the method of Lowry et al (1954) J Biol Chem 207:19–37.

Male SD rats = experiment: Local injection into proximal tibia, bone histomorphometry (bone growth); type: in vivo, rat; conditions: L-NAME 0.6 nmole/day given with Indazole 1, versus Indazole 1 alone
Procedure: Assay of bone resorption of osteoclast: Osteoclast precursors were isolated from rat long bones as mentioned above. The cells were re-suspended in a complete DMEM medium and plated into a calcium phosphate apatite-coated 24-well plate, OAAS (Oscotec, OCT USA Inc.) at 1×10^6 cells/0.5 ml/well. The cells were cultured for 5 days in the presence of M-CSF (20 ng/ml) plus sRANKL (50 ng/ml). Indazole 1 was injected daily for additional 3 days in the absence of M-CSF and sRANKL. Culture was terminated on day 8 and the remaining cells in the plate were lysed using 1 N NaOH. Five images per well were obtained using an inverted microscope (200×), and resorbed area was measured using an image analyzer. Local injection Male SD rats weighing 70–88 gm were used. Implantation of a cannula (22G) was done from the posteriolateral side into the proximal tibial metaphysis in both limbs of rats anesthetized with pentobarbital. The cannula had its outer end in the subcutaneous tissue. Indazole 1 was percutaneously injected through the cannula into the proximal tibia once/day for 1 week. The same concentration of DMSO diluted with normal saline was injected into the right side for comparison. On day 14, the rats were sacrificed and tibiae were fixed in 10% formaldehyde for 48 h at 4° C. Bone histomorphometry: After formalin fixation of tibia was completed, the tibiae were then decalcified in 0.5 N hydrochloric acid, dehydrated in an ascending series of ethanol solution and acetone, and embedded in paraffin. Serial sections (5 μm) were cut longitudinally and stained with Mayer's hematoxylin-eosin solution (Yang et al. (1993) Calcif Tissue Int 52:57–61). Images of the growth plate and proximal tibia were photographed using a photoMicroGraphic Digitize integrate System (MGDS; Total-Integra Technology Co., Ltd., Taipei, Taiwan). Bone volume measurements were performed on the whole secondary spongiosa, which is located under the primary spongiosa and characterized by a network of larger trabeculae. Bone volumes were calculated using an image analysis software. All measurements were done in a single-blind fashion. Bone growth: Male young rats (SD) weighing 70–90 gm were divided into six groups. The average weight of the rats in each group was 73.9±1.1 gm. Indazole 1 was dissolved in DMSO and diluted with saline to a final concentration of 10 μM. One of the six groups was a control group, and the other groups were punctuated with a needle cannula alone, injected with a vehicle using a needle cannula (day 1, once), injected with Indazole 1 (day 1, once), injected with a vehicle using a needle cannula (days 1–7, daily), and injected with Indazole 1 (days 1–7, daily), respectively. […] Trabecular bone in the secondary spongiosa increased by 90% after local injection of Indazole 1 for 7 days.

Structure (SMILES): O=c1onc2cnc3ccccc3n12 [ODQ]
- effect on the increase of ALP activity by Indazole 1 (Primary osteoblast cells; ODQ 20 μM): antagonized

Structure (SMILES): COC(=O)[C@@]1(OC)C[C@H]2O[C@]1(C)n1c3ccccc3c3c4c(c5c6ccccc6n2c5c31)C(=O)N(C)C4 [KT5823]
- effect on the increase of ALP activity by Indazole 1 (Primary osteoblast cells; KT5823 2 μM): antagonized

Structure (SMILES): COC(=O)[C@@H](N)CCCNC(=N)N[N+](=O)[O-] [L-NAME, N^G-nitro-L-arginine-methylester, reference compound]
- effect on the increase of ALP activity by Indazole 1 (Primary osteoblast cells; L-NAME 60 μM): antagonized
- effect on enhancement of bone formation in the secondary spongiosa by Indazole 1 (Male SD rats): significantly attenuated
